Laboratory results published in patent US12077503B2, “Substituted cyclic amides and their use as herbicides” (FMC CORPORATION, priority 2015, dated 2024).

Key:
Assay type in all cases: in vivo
[1] = tested on: giant foxtail (Setaria faberii); assay: Test A preemergence; conditions: for Plant response rating, Foxtail, Giant: preemergence
Outline: (§1)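 In a loam soil and sand blend, planted seeds got a preemergence directed soil spray, and young plants at the one- to two-leaf stage, 2–10 cm high, got a postemergence application; ~10 d greenhouse hold; injury rated visually, 0 = none, 100 = complete control.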

[2] = tested on: barnyardgrass (Echinochloa crus-galli); assay: Test A preemergence; conditions: for Plant response rating, Barnyardgrass: preemergence
Outline: as §1

[3] = tested on: velvetleaf (Abutilon theophrasti); assay: Test A preemergence; conditions: for Plant response rating, Velvetleaf: preemergence
Outline: as §1

[4] = tested on: corn (Zea mays); assay: Test A preemergence; conditions: for Plant response rating, Corn: preemergence
Outline: as §1

[5] = tested on: crabgrass, large (Digitaria sanguinalis); assay: Test A preemergence; conditions: for Plant response rating, Crabgrass, Large: preemergence
Outline: as §1

[6] = tested on: wheat (Triticum aestivum); assay: Test A preemergence; conditions: for Plant response rating, Wheat: preemergence
Outline: as §1

[7] = tested on: morningglory (Ipomoea spp.); assay: Test A preemergence; conditions: for Plant response rating, Morningglory: preemergence
Outline: as §1

[8] = tested on: pigweed (Amaranthus retroflexus); assay: Test A preemergence; conditions: for Plant response rating, Pigweed: preemergence
[9] = tested on: ducksalad (Heteranthera limosa); assay: Test B flooded paddy test; conditions: Flood, 250 g ai/ha; 0 to 100 scale where 0 is no effect and 100 is complete control; 13 to 15 d
Outline: (§2)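 Greenhouse paddy pots with 2-leaf stage plants received compound by direct addition to floodwater 3 cm deep, kept at that level. Scored visually at 13–15 d versus controls (0 no effect; 100 complete control).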

[10] = tested on: sedge, umbrella (small-flower umbrella sedge, Cyperus difformis); assay: Test B flooded paddy test; conditions: Flood, 250 g ai/ha
Outline: as §2

[11] = tested on: rice (Oryra sativa); assay: Test B flooded paddy test; conditions: Flood, 250 g ai/ha; 0 to 100 scale where 0 is no effect and 100 is complete control; 13 to 15 d
Outline: as §2

[12] = tested on: barnyardgrass (Echinochloa crus-galli); assay: Test B flooded paddy test; conditions: Flood, 250 g ai/ha; 0 to 100 scale where 0 is no effect and 100 is complete control; 13 to 15 d
Outline: as §2

[13] = tested on: giant foxtail (Setaria faberii); assay: Test A postemergence
Outline: as §1

[14] = tested on: barnyardgrass (Echinochloa crus-galli); assay: Test A postemergence
Outline: as §1

[15] = tested on: velvetleaf (Abutilon theophrasti); assay: Test A postemergence
Outline: as §1

[16] = tested on: corn (Zea mays); assay: Test A postemergence
Outline: as §1

[17] = tested on: crabgrass, large (Digitaria sanguinalis); assay: Test A postemergence
Outline: as §1

[18] = tested on: wheat (Triticum aestivum); assay: Test A postemergence
Outline: as §1

[19] = tested on: morningglory (Ipomoea spp.); assay: Test A postemergence
Outline: as §1

[20] = tested on: pigweed (Amaranthus retroflexus); assay: Test A postemergence
Outline: as §1

[21] = 125 g ai/ha, visual rating after approx. 10 d, 0 to 100 scale where 0 is no effect and 100 is complete control
[22] = 500 g ai/ha, 0 to 100 scale, 0 = no effect, 100 = complete control
[23] = 125 g ai/ha, postemergence, visual injury after approximately 10 d, 0 to 100 scale (0 no effect, 100 complete control)
[24] = 500 g ai/ha, postemergence, visual injury, 0 to 100 scale (0 no effect, 100 complete control), approx. 10 d
[25] = 125 g ai/ha, 0 to 100 scale (0 no effect, 100 complete control)
[26] = Preemergence, 500 g ai/ha, 0 is no effect, 100 is complete control
[27] = 500 g ai/ha, postemergence, 0 to 100 scale, 0 no effect, 100 complete control
[28] = Postemergence, 125 g ai/ha, visual injury, 0 to 100 scale (0 no effect, 100 complete control), approx. 10 d

O=C1NCC(c2cccc(O)c2)C1C(=O)Nc1ccccc1C(F)(F)F (racemic) [Compound 716]
0: Plant response rating, Foxtail, Giant [1, 21] | Plant response rating, Foxtail, Giant [1, 22] | Plant response rating, Barnyardgrass [2, 21] | Plant response rating, Barnyardgrass [2, 22] | Plant response rating, Velvetleaf [3, 21] | Plant response rating, Velvetleaf [3, 22] | Plant response rating, Corn [4, 21] | Plant response rating, Corn [4, 22] | Plant response rating, Crabgrass, Large [5, 21] | Plant response rating, Crabgrass, Large [5, 22] | Plant response rating, Wheat [6, 21] | Plant response rating, Wheat [6, 22] | Plant response rating, Morningglory [7, 21] | Plant response rating, Morningglory [7, 22] | Plant response rating, Pigweed [8, 21] | Plant response rating, Pigweed [8, 22] | Plant response rating, Ducksalad [9] | Sedge, Umbrella plant response rating ([10]; scale of 0 to 100 where 0 is no effect and 100 is complete control) | Plant response rating, Rice [11] | Plant response rating, Barnyardgrass [12] | Plant response rating, Foxtail, Giant [13, 23] | Plant response rating, Foxtail, Giant [13, 24] | Plant response rating, Barnyardgrass [14, 23] | Plant response rating, Barnyardgrass [14, 24] | Plant response rating, Velvetleaf [15, 23] | Plant response rating, Velvetleaf [15, 24] | Plant response rating, Corn [16, 23] | Plant response rating, Corn [16, 24] | Plant response rating, Crabgrass, Large [17, 23] | Plant response rating, Crabgrass, Large [17, 24] | Plant response rating, Wheat [18, 23] | Plant response rating, Wheat [18, 24] | Plant response rating, Morningglory [19, 23] | Plant response rating, Morningglory [19, 24] | Plant response rating, Pigweed [20, 23] | Plant response rating, Pigweed [20, 24]

Nc1cccc(C2CNC(=O)C2C(=O)Nc2cccc(F)c2F)c1 (stereo not drawn) [Compound 353]
0: Plant response rating, Foxtail, Giant [1, 25] | Foxtail, Giant plant response rating (0 to 100 scale) [1, 26] | Plant response rating, Barnyardgrass [2, 25] | Barnyardgrass plant response rating (0 to 100 scale) [2, 26] | Plant response rating, Velvetleaf [3, 25] | Velvetleaf plant response rating (0 to 100 scale) [3, 26] | Plant response rating, Corn [4, 25] | Corn plant response rating (0 to 100 scale) [4, 26] | Plant response rating, Crabgrass, Large [5, 25] | Crabgrass, Large plant response rating (0 to 100 scale) [5, 26] | Plant response rating, Wheat [6, 25] | Wheat plant response rating (0 to 100 scale) [6, 26] | Plant response rating, Morningglory [7, 25] | Morningglory plant response rating (0 to 100 scale) [7, 26] | Plant response rating, Pigweed [8, 25] | Pigweed plant response rating (0 to 100 scale) [8, 26] | Plant response rating, Ducksalad [9] | Plant response rating, Sedge, Umbrella ([10]; 0 to 100 scale where 0 is no effect and 100 is complete control, 13 to 15 d) | Plant response rating, Rice [11] | Plant response rating, Barnyardgrass [12] | Plant response rating, Foxtail, Giant [13, 27] | Plant response rating, Foxtail, Giant [13, 28] | Plant response rating, Barnyardgrass [14, 27] | Plant response rating, Barnyardgrass [14, 28] | Plant response rating, Velvetleaf [15, 27] | Plant response rating, Velvetleaf [15, 28] | Plant response rating, Corn [16, 27] | Plant response rating, Corn [16, 28] | Plant response rating, Crabgrass, Large [17, 27] | Plant response rating, Crabgrass, Large [17, 28] | Plant response rating, Wheat [18, 27] | Plant response rating, Wheat [18, 28] | Plant response rating, Morningglory [19, 27] | Plant response rating, Morningglory [19, 28] | Plant response rating, Pigweed [20, 27] | Plant response rating, Pigweed [20, 28]
